# Reference: US8192962B2, “Processes for detecting toxic substances” (Daikin Industries, Ltd., priority 2001, dated 2012)
# Tested on: Detoxification protein genes
# Test: DNA chip mRNA expression in yeast, detoxification protein genes (Table 8)
# Format: cell-based, Saccharomyces cerevisiae S288C
# Method in brief: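 Value is the scanned fluorescence intensity ratio of exposed versus chemical-free cells. Log-phase S288C yeast in YPD at 25° C. received one toxic substance for two hours, dosed to slow growth without killing; Cy3/Cy5-labeled cDNA from oligo-dT-purified mRNA was hybridized to a whole-genome chip at 65° C.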
smiles,measurement,setting,value
"Cl[C@H]1[C@H](Cl)[C@@H](Cl)[C@@H](Cl)[C@H](Cl)[C@H]1Cl [(7), γ-hexachlorocyclohexane]",The level of expressed mRNA in the presence of chemical substance/The level of expressed mRNA in the absence of chemical substance,yeast gene YBL064C,2.5
same,The level of expressed mRNA in the presence of chemical substance/The level of expressed mRNA in the absence of chemical substance,yeast gene YBR008C,0.9
same,The level of expressed mRNA in the presence of chemical substance/The level of expressed mRNA in the absence of chemical substance,yeast gene YBR145W,58.8
same,The level of expressed mRNA in the presence of chemical substance/The level of expressed mRNA in the absence of chemical substance,yeast gene YBR244W,0.6
same,The level of expressed mRNA in the presence of chemical substance/The level of expressed mRNA in the absence of chemical substance,yeast gene YBR293W,0.9
same,The level of expressed mRNA in the presence of chemical substance/The level of expressed mRNA in the absence of chemical substance,yeast gene YCL035C,2.7
same,The level of expressed mRNA in the presence of chemical substance/The level of expressed mRNA in the absence of chemical substance,yeast gene YCL069W,1.4
same,The level of expressed mRNA in the presence of chemical substance/The level of expressed mRNA in the absence of chemical substance,yeast gene YCR083W,1.8
same,The level of expressed mRNA in the presence of chemical substance/The level of expressed mRNA in the absence of chemical substance,yeast gene YDL100C,1.6
same,The level of expressed mRNA in the presence of chemical substance/The level of expressed mRNA in the absence of chemical substance,yeast gene YDL168W,1.1
same,The level of expressed mRNA in the presence of chemical substance/The level of expressed mRNA in the absence of chemical substance,yeast gene YDR256C,0.6
same,The level of expressed mRNA in the presence of chemical substance/The level of expressed mRNA in the absence of chemical substance,yeast gene YDR453C,1.0
same,The level of expressed mRNA in the presence of chemical substance/The level of expressed mRNA in the absence of chemical substance,yeast gene YDR513W,1.6
same,The level of expressed mRNA in the presence of chemical substance/The level of expressed mRNA in the absence of chemical substance,yeast gene YDR538W,1.2
same,The level of expressed mRNA in the presence of chemical substance/The level of expressed mRNA in the absence of chemical substance,yeast gene YEL027W,0.8
same,The level of expressed mRNA in the presence of chemical substance/The level of expressed mRNA in the absence of chemical substance,yeast gene YEL065W,4.3
same,The level of expressed mRNA in the presence of chemical substance/The level of expressed mRNA in the absence of chemical substance,yeast gene YER185W,1.1
same,The level of expressed mRNA in the presence of chemical substance/The level of expressed mRNA in the absence of chemical substance,yeast gene YFL050C,0.8
same,The level of expressed mRNA in the presence of chemical substance/The level of expressed mRNA in the absence of chemical substance,yeast gene YGL013C,0.9
same,The level of expressed mRNA in the presence of chemical substance/The level of expressed mRNA in the absence of chemical substance,yeast gene YGL254W,1.3
same,The level of expressed mRNA in the presence of chemical substance/The level of expressed mRNA in the absence of chemical substance,yeast gene YGR088W,0.8
same,The level of expressed mRNA in the presence of chemical substance/The level of expressed mRNA in the absence of chemical substance,yeast gene YGR138C,0.7
same,The level of expressed mRNA in the presence of chemical substance/The level of expressed mRNA in the absence of chemical substance,yeast gene YGR197C,1.3
same,The level of expressed mRNA in the presence of chemical substance/The level of expressed mRNA in the absence of chemical substance,yeast gene YGR209C,1.7
same,The level of expressed mRNA in the presence of chemical substance/The level of expressed mRNA in the absence of chemical substance,yeast gene YGR224W,0.4
same,The level of expressed mRNA in the presence of chemical substance/The level of expressed mRNA in the absence of chemical substance,yeast gene YHL040C,4.0
same,The level of expressed mRNA in the presence of chemical substance/The level of expressed mRNA in the absence of chemical substance,yeast gene YHL047C,16.8
same,The level of expressed mRNA in the presence of chemical substance/The level of expressed mRNA in the absence of chemical substance,yeast gene YHR008C,0.7
same,The level of expressed mRNA in the presence of chemical substance/The level of expressed mRNA in the absence of chemical substance,yeast gene YHR048W,0.8
same,The level of expressed mRNA in the presence of chemical substance/The level of expressed mRNA in the absence of chemical substance,yeast gene YHR053C,1.2
same,The level of expressed mRNA in the presence of chemical substance/The level of expressed mRNA in the absence of chemical substance,yeast gene YHR055C,1.1
same,The level of expressed mRNA in the presence of chemical substance/The level of expressed mRNA in the absence of chemical substance,yeast gene YIR002C,1.3
same,The level of expressed mRNA in the presence of chemical substance/The level of expressed mRNA in the absence of chemical substance,yeast gene YIR038C,2.0
same,The level of expressed mRNA in the presence of chemical substance/The level of expressed mRNA in the absence of chemical substance,yeast gene YJL101C,1.0
same,The level of expressed mRNA in the presence of chemical substance/The level of expressed mRNA in the absence of chemical substance,yeast gene YJR104C,1.1
same,The level of expressed mRNA in the presence of chemical substance/The level of expressed mRNA in the absence of chemical substance,yeast gene YKL026C,2.5
same,The level of expressed mRNA in the presence of chemical substance/The level of expressed mRNA in the absence of chemical substance,yeast gene YKL064W,1.1
same,The level of expressed mRNA in the presence of chemical substance/The level of expressed mRNA in the absence of chemical substance,yeast gene YKR066C,0.5
same,The level of expressed mRNA in the presence of chemical substance/The level of expressed mRNA in the absence of chemical substance,yeast gene YKR105C,1.0
same,The level of expressed mRNA in the presence of chemical substance/The level of expressed mRNA in the absence of chemical substance,yeast gene YKR106W,0.9
same,The level of expressed mRNA in the presence of chemical substance/The level of expressed mRNA in the absence of chemical substance,yeast gene YLL028W,1.0
same,The level of expressed mRNA in the presence of chemical substance/The level of expressed mRNA in the absence of chemical substance,yeast gene YLL057C,1.6
same,The level of expressed mRNA in the presence of chemical substance/The level of expressed mRNA in the absence of chemical substance,yeast gene YLL060C,2.0
same,The level of expressed mRNA in the presence of chemical substance/The level of expressed mRNA in the absence of chemical substance,yeast gene YLR043C,2.6
same,The level of expressed mRNA in the presence of chemical substance/The level of expressed mRNA in the absence of chemical substance,yeast gene YLR046C,1.5
same,The level of expressed mRNA in the presence of chemical substance/The level of expressed mRNA in the absence of chemical substance,yeast gene YML028W,0.8
same,The level of expressed mRNA in the presence of chemical substance/The level of expressed mRNA in the absence of chemical substance,yeast gene YML116W,1.4
same,The level of expressed mRNA in the presence of chemical substance/The level of expressed mRNA in the absence of chemical substance,yeast gene YMR015C,0.4
same,The level of expressed mRNA in the presence of chemical substance/The level of expressed mRNA in the absence of chemical substance,yeast gene YMR038C,1.1
same,The level of expressed mRNA in the presence of chemical substance/The level of expressed mRNA in the absence of chemical substance,yeast gene YNL239W,2.1
same,The level of expressed mRNA in the presence of chemical substance/The level of expressed mRNA in the absence of chemical substance,yeast gene YNL241C,3.2
same,The level of expressed mRNA in the presence of chemical substance/The level of expressed mRNA in the absence of chemical substance,yeast gene YNL259C,3.8
same,The level of expressed mRNA in the presence of chemical substance/The level of expressed mRNA in the absence of chemical substance,yeast gene YOL158C,1.6
same,The level of expressed mRNA in the presence of chemical substance/The level of expressed mRNA in the absence of chemical substance,yeast gene YOR031W,1.3
same,The level of expressed mRNA in the presence of chemical substance/The level of expressed mRNA in the absence of chemical substance,yeast gene YOR153W,2.6
same,The level of expressed mRNA in the presence of chemical substance/The level of expressed mRNA in the absence of chemical substance,yeast gene YOR247W,0.5
same,The level of expressed mRNA in the presence of chemical substance/The level of expressed mRNA in the absence of chemical substance,yeast gene YOR251C,1.0
same,The level of expressed mRNA in the presence of chemical substance/The level of expressed mRNA in the absence of chemical substance,yeast gene YOR273C,0.4
same,The level of expressed mRNA in the presence of chemical substance/The level of expressed mRNA in the absence of chemical substance,yeast gene YPL163C,0.4
same,The level of expressed mRNA in the presence of chemical substance/The level of expressed mRNA in the absence of chemical substance,yeast gene YPR200C,1.3
